The numbers were not newly measured in patent US9492406B2, “Pharmaceutical composition” (IPCA Laboratories Limited, priority 2012, dated 2016), which cites them from elsewhere.

Where two headings read alike, the source gives them in different places.

Assay in series [1]: not given
This is another data set of the same source.

For series [2] the following is noted: theophylline products of US2008248117.

What is called bioavailability is dose-corrected exposure relative to a reference, in per cent. In the case of `O=C1C(O)=C([C@H]2CC[C@H](c3ccc(Cl)cc3)CC2)C(=O)c2ccccc21` [Atovaquone, trans-2-[4-(4-chlorophenyl)cyclohexyl]-3-hydroxy-1,4-naphthoquinone], the bioavailability reads like this: (microfluidized microparticles supplied as suspension, with fat diet) 46-48%; (oral non-sized suspension) “about 23%”; (oral non-sized suspension, under fat fed condition) 46-48%; (tablet formulations) roughly 12%.
Turning to `NC(=O)N1c2ccccc2C=Cc2ccccc21` [Carbamazepine crystals, Carbamazepine], the “Release after 15 min in %” value in series [1] (carbamazepine products of US2008248117, 15 min) is listed as 22%. Besides, in series [1] (carbamazepine products of US2008248117, 30 min), the “Release after 30 min in %” value is 53%.
For the molecule `Cn1c(=O)c2[nH]cnc2n(C)c1=O` [Theophylline crystals, Theophylline], the “Release after 15 min in %” value in series [1] (theophylline products of US2008248117, 15 min) is reported as 34%. For the same molecule, in series [1] (theophylline products of US2008248117, 30 min), the “Release after 30 min in %” value is 78%. Besides, the Resistance to crushing in series [2] is 140.
